# Where “and” joins values, the source holds several entries; their conditions need not be identical. Equal values may be shown once. Marks after values point to notes of the source that are not given here.
# System: anti collagen antibodies induced arthritis (ACAIA)
# Experiment: Anti collagen antibodies induced arthritis (ACAIA) in mice, intra-articular treatment: paw thickness, arthritis clinical score, body weight;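 note: mouse arthritis induced by IV anti-collagen mAb on day 0 plus IP LPS on day 4, with body weight, caliper paw thickness and 0-4 paw score tracked against a day 0 baseline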
smiles,measurement,setting,value
"C[C@@H]1C[C@H]2[C@@H]3CCC4=CC(=O)C=C[C@]4(C)[C@@]3(F)[C@@H](O)C[C@]2(C)[C@@]1(O)C(=O)CO [dexamethasone, Dexamethasone, reference compound]",Clinical score of treated leg (Avg.),"1 mg/kg IA (Group 7), Baseline",0.00 points
same,Paw thickness Avg. Delta untreated -treated,"1 mg/kg IA (Group 7), Baseline",0.00 mm
same,Percent change of weight per day (Av),"1 mg/kg IA (Group 7), Baseline",100.00%
same,Percent change of weight per day (individual animal),"1 mg/kg IA (Group 7), Baseline",100%
same,"Δ clinical score untreated -treated, Avg. Delta","1 mg/kg IA (Group 7), Baseline",0.00 points
same,Clinical score of treated leg (Avg.),"1 mg/kg IA (Group 7), Day 3",0.00 points
same,Paw thickness Avg. Delta untreated -treated,"1 mg/kg IA (Group 7), Day 3",−0.02 mm
same,Percent change of weight per day (Av),"1 mg/kg IA (Group 7), Day 3",98.19%
same,Percent change of weight per day (individual animal),"1 mg/kg IA (Group 7), Day 3",100% and 97.54% and 95.7% and 99.48%
same,"Δ clinical score untreated -treated, Avg. Delta","1 mg/kg IA (Group 7), Day 3",0.00 points
same,Clinical score of treated leg (Avg.),"1 mg/kg IA (Group 7), Day 4",0.00 points
same,Paw thickness Avg. Delta untreated -treated,"1 mg/kg IA (Group 7), Day 4",−0.06 mm
same,Percent change of weight per day (Av),"1 mg/kg IA (Group 7), Day 4",95.21%
same,Percent change of weight per day (individual animal),"1 mg/kg IA (Group 7), Day 4",97.91% and 96.55% and 93.01% and 93.23%
same,"Δ clinical score untreated -treated, Avg. Delta","1 mg/kg IA (Group 7), Day 4",0.00 points
same,Clinical score of treated leg (Avg.),"1 mg/kg IA (Group 7), Day 5",0.00 points
same,Paw thickness Avg. Delta untreated -treated,"1 mg/kg IA (Group 7), Day 5",−0.05 mm
same,Percent change of weight per day (Av),"1 mg/kg IA (Group 7), Day 5",91.29%
same,Percent change of weight per day (individual animal),"1 mg/kg IA (Group 7), Day 5",90.58% and 91.133% and 88.71% and 100%
same,"Δ clinical score untreated -treated, Avg. Delta","1 mg/kg IA (Group 7), Day 5",0.00 points
same,Clinical score of treated leg (Avg.),"1 mg/kg IA (Group 7), Day 6",0.29 points
same,Paw thickness Avg. Delta untreated -treated,"1 mg/kg IA (Group 7), Day 6",0.05 mm
same,Paw thickness of treated leg (Avg.),"1 mg/kg IA (Group 7), Day 6",2.24** mm
same,Paw thickness of untreated leg (Avg.),"1 mg/kg IA (Group 7), Day 6",2.29 mm
same,Percent change of weight per day (Av),"1 mg/kg IA (Group 7), Day 6",88.66%
same,Percent change of weight per day (individual animal),"1 mg/kg IA (Group 7), Day 6",86.91% and 87.68% and 86.02% and 102.0833%
same,"Δ clinical score untreated -treated, Avg. Delta","1 mg/kg IA (Group 7), Day 6",0.29 points
same,Clinical score of treated leg (Avg.),"1 mg/kg IA (Group 7), Day 7",0.86 points
same,Paw thickness Avg. Delta untreated -treated,"1 mg/kg IA (Group 7), Day 7",−0.01 mm
same,Paw thickness of treated leg (Avg.),"1 mg/kg IA (Group 7), Day 7",2.30** mm
same,Paw thickness of untreated leg (Avg.),"1 mg/kg IA (Group 7), Day 7",2.30 mm
same,Percent change of weight per day (Av),"1 mg/kg IA (Group 7), Day 7",88.04%
same,Percent change of weight per day (individual animal),"1 mg/kg IA (Group 7), Day 7",89.01% and 83.25% and 86.02% and 104.1667%
same,"Δ clinical score untreated -treated, Avg. Delta","1 mg/kg IA (Group 7), Day 7",0.00 points
same,Clinical score of treated leg (Avg.),"1 mg/kg IA (Group 7), Day 8",1.14 points
same,Paw thickness Avg. Delta untreated -treated,"1 mg/kg IA (Group 7), Day 8",0.14 mm
same,Paw thickness of treated leg (Avg.),"1 mg/kg IA (Group 7), Day 8",2.44 mm
same,Paw thickness of untreated leg (Avg.),"1 mg/kg IA (Group 7), Day 8",2.59 mm
same,Percent change of weight per day (Av),"1 mg/kg IA (Group 7), Day 8",89.48%
same,Percent change of weight per day (individual animal),"1 mg/kg IA (Group 7), Day 8",90.05% and 83.25% and 87.63% and 104.6875%
same,"Δ clinical score untreated -treated, Avg. Delta","1 mg/kg IA (Group 7), Day 8",0.57 points
same,Clinical score of treated leg (Avg.),"1 mg/kg IA (Group 7), Day 10",1.14 points
same,Paw thickness Avg. Delta untreated -treated,"1 mg/kg IA (Group 7), Day 10",0.19 mm
same,Paw thickness of treated leg (Avg.),"1 mg/kg IA (Group 7), Day 10",2.45 mm
same,Paw thickness of untreated leg (Avg.),"1 mg/kg IA (Group 7), Day 10",2.64 mm
same,Percent change of weight per day (Av),"1 mg/kg IA (Group 7), Day 10",92.65%
same,Percent change of weight per day (individual animal),"1 mg/kg IA (Group 7), Day 10",91.1% and 92.61% and 87.63% and 104.1667%
same,"Δ clinical score untreated -treated, Avg. Delta","1 mg/kg IA (Group 7), Day 10",0.43 points
same,Clinical score of treated leg (Avg.),"1 mg/kg IA (Group 7), Day 12",1.29 points
same,Paw thickness Avg. Delta untreated -treated,"1 mg/kg IA (Group 7), Day 12",0.24 mm
same,Paw thickness of treated leg (Avg.),"1 mg/kg IA (Group 7), Day 12",2.50 mm
same,Paw thickness of untreated leg (Avg.),"1 mg/kg IA (Group 7), Day 12",2.74 mm
same,Percent change of weight per day (Av),"1 mg/kg IA (Group 7), Day 12",96.89%
same,Percent change of weight per day (individual animal),"1 mg/kg IA (Group 7), Day 12",93.19% and 99.01% and 90.32% and 110.4167% and 94.55%
same,"Δ clinical score untreated -treated, Avg. Delta","1 mg/kg IA (Group 7), Day 12",0.43 points
same,Clinical score of treated leg (Avg.),"1 mg/kg IP (Group 6), Baseline",0.00 points
same,Paw thickness Avg. Delta untreated -treated,"1 mg/kg IP (Group 6), Baseline",0.02 mm
same,Percent change of weight per day (Av),"1 mg/kg IP (Group 6), Baseline",100.00%
same,Percent change of weight per day (individual animal),"1 mg/kg IP (Group 6), Baseline",100%
same,"Δ clinical score untreated -treated, Avg. Delta","1 mg/kg IP (Group 6), Baseline",0.00 points
same,Clinical score of treated leg (Avg.),"1 mg/kg IP (Group 6), Day 3",0.00 points
same,Paw thickness Avg. Delta untreated -treated,"1 mg/kg IP (Group 6), Day 3",0.00 mm
same,Percent change of weight per day (Av),"1 mg/kg IP (Group 6), Day 3",95.60** percent
same,Percent change of weight per day (individual animal),"1 mg/kg IP (Group 6), Day 3",94.97% and 94.09% and 95.07% and 96.31% and 96.24% and 96.41% and 96.1165%
same,"Δ clinical score untreated -treated, Avg. Delta","1 mg/kg IP (Group 6), Day 3",0.00 points
same,Clinical score of treated leg (Avg.),"1 mg/kg IP (Group 6), Day 4",0.00 points
same,Paw thickness Avg. Delta untreated -treated,"1 mg/kg IP (Group 6), Day 4",−0.01 mm
same,Percent change of weight per day (Av),"1 mg/kg IP (Group 6), Day 4",96.59%
same,Percent change of weight per day (individual animal),"1 mg/kg IP (Group 6), Day 4",96.48% and 95.5665% and 97.04% and 96.31% and 96.71% and 97.4359% and 96.6%
same,"Δ clinical score untreated -treated, Avg. Delta","1 mg/kg IP (Group 6), Day 4",0.00 points
same,Clinical score of treated leg (Avg.),"1 mg/kg IP (Group 6), Day 5",0.00 points
same,Paw thickness Avg. Delta untreated -treated,"1 mg/kg IP (Group 6), Day 5",0.01 mm
same,Percent change of weight per day (Av),"1 mg/kg IP (Group 6), Day 5",88.34%
same,Percent change of weight per day (individual animal),"1 mg/kg IP (Group 6), Day 5",88.44% and 86.2069% and 91.63% and 86.18% and 86.85% and 89.74% and 89.32%
same,"Δ clinical score untreated -treated, Avg. Delta","1 mg/kg IP (Group 6), Day 5",0.00 points
same,Clinical score of treated leg (Avg.),"1 mg/kg IP (Group 6), Day 6",0.00* points
same,Paw thickness Avg. Delta untreated -treated,"1 mg/kg IP (Group 6), Day 6",−0.05 mm

# From US20250339409A1, “USES OF PAN BET INHIBITORS” (VYNE THERAPEUTICS INC., priority 2021, published 2025)
